This note sets out measurements from PubChem BioAssay (NCI).

Some test systems named below: PC-3 prostate; SNB-19 CNS; HOP-92 NSCLC; SW-620 colon; OVCAR-5 ovarian; COLO 205 colon; OVCAR-3 ovarian; SN12C renal; SF-539 CNS; UACC-62 melanoma.
What all share (assay): inhibition of tumour cell growth, NCI panel, 48 h

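Growth conditions: 96-well plates. Treatment: test compound, 48 hours, 5 concentrations. Analysis: linear interpolation between bracketing concentrations; unreached endpoints set to highest concentration. GI50 marks 50% less growth. TGI is the concentration that stops growth completely.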

As for `O=C1OC(c2ccccc2)(c2cc(Br)c(O)c(Br)c2)c2ccccc21` (stereo not given), the GI50 in the test with PC-3 prostate is 35600 nM; in the test on SNB-19 CNS, 29.7 µM; with HOP-92 NSCLC it was 16.6 µM; in the test on SW-620 colon, 27 µM; in the test on OVCAR-5 ovarian, 31.8 µM; in the test with COLO 205 colon it was 18.2 µM. For the same molecule, the GI50 with OVCAR-3 ovarian is 18100 nM; in the test with SN12C renal, 50 µM; in the test with SF-539 CNS, 26.6 µM; in the test with UACC-62 melanoma, 15.6 µM. For the same molecule, the TGI with PC-3 prostate was more than 100 µM; in the test with SNB-19 CNS, more than 100 µM; in the test on HOP-92 NSCLC it was 40.5 µM; in the test with SW-620 colon, more than 100 µM; in the test with OVCAR-5 ovarian it was more than 100 µM; in the test on COLO 205 colon, 39.4 µM. For the same molecule, the TGI was 36.4 µM with OVCAR-3 ovarian, more than 100 µM in the test on SN12C renal, 80.6 µM in the test with SF-539 CNS and 31.7 µM in the test with UACC-62 melanoma.
On to `CNC(=O)Oc1cc(C)c(/C=C/c2cncc(C(=O)NC)c2)c(C)c1`, for which the GI50 was more than 25000 nM in the test with PC-3 prostate; more than 25 µM in the test with SNB-19 CNS; 9.13 µM in the test with HOP-92 NSCLC; more than 25 µM in the test with SW-620 colon; more than 25 µM in the test on OVCAR-5 ovarian; more than 25 µM with COLO 205 colon. For the same molecule, the GI50 in the test on OVCAR-3 ovarian was more than 25000 nM; with SN12C renal, more than 25 µM; in the test with SF-539 CNS it was more than 21.6 µM; in the test with UACC-62 melanoma, 13.2 µM. In addition, the TGI with PC-3 prostate, with SNB-19 CNS, with HOP-92 NSCLC, in the test on SW-620 colon, in the test with OVCAR-5 ovarian and in the test on COLO 205 colon was more than 25 µM each time. Further, the TGI with OVCAR-3 ovarian, with SN12C renal, with SF-539 CNS and in the test with UACC-62 melanoma was more than 25 µM each time.
For `O=S(=O)(Nc1cc(Cl)ccc1Cl)c1ccc(-c2cnc(C3CC3)o2)cc1`, the GI50 is 563 nM in the test with PC-3 prostate; 1.51 µM in the test on SNB-19 CNS; 1.21 µM in the test on HOP-92 NSCLC; 0.814 µM with SW-620 colon; 3.39 µM with OVCAR-5 ovarian; 1.84 µM in the test on COLO 205 colon. For the same molecule, the GI50 with OVCAR-3 ovarian is 512 nM; with SN12C renal, 4.32 µM; with SF-539 CNS it was 1.24 µM; with UACC-62 melanoma, 0.399 µM. Further, the TGI with PC-3 prostate is 17 µM; with SNB-19 CNS it was more than 100 µM; in the test with HOP-92 NSCLC, 8.42 µM; in the test with SW-620 colon, more than 100 µM; with OVCAR-5 ovarian, more than 100 µM; in the test on COLO 205 colon, 13.4 µM. Besides, the TGI is 14.8 µM with OVCAR-3 ovarian, more than 100 µM in the test with SN12C renal, 10.2 µM in the test on SF-539 CNS and 23.9 µM with UACC-62 melanoma.
Consider `CSc1ncnc2c1ncn2C1OC(CO)C(O)OC1O` (stereo not given), for which the TGI with PC-3 prostate is 33.9 µM; with SNB-19 CNS, 51.5 µM; with HOP-92 NSCLC, 22.7 µM; in the test on SW-620 colon, more than 100 µM; with OVCAR-5 ovarian, more than 23.3 µM; in the test on COLO 205 colon, 11.8 µM. Also, the TGI with OVCAR-3 ovarian was determined as 16.7 µM; in the test with SN12C renal, 41.3 µM; in the test with SF-539 CNS, 16.9 µM; in the test with UACC-62 melanoma, 18.5 µM.
`COC(=O)[C@H](Cc1ccc(O)cc1)NC(=O)[C@@H](OC)[C@@H]1Cc2cc3cc(OC4CC(OC5CC(O)C(O)C(C)O5)C(O)C(C)O4)c(C)c(O)c3c(O)c2C(=O)[C@H]1OC1CC(OC2CC(OC3CC(C)(O)C(O)C(C)O3)C(O)C(C)O2)C(O)C(C)O1` (stereo not given in full): the GI50 in the test on PC-3 prostate is 106 nM; in the test with SNB-19 CNS it was 0.0713 µM; with HOP-92 NSCLC it was 0.0387 µM; in the test with SW-620 colon, 0.0902 µM; with OVCAR-5 ovarian it was 0.207 µM; with COLO 205 colon, 0.0932 µM. Further, the GI50 is 155 nM in the test with OVCAR-3 ovarian, 0.0595 µM with SN12C renal, 0.0639 µM with SF-539 CNS and 0.0223 µM in the test on UACC-62 melanoma. In addition, the TGI in the test on PC-3 prostate was more than 25 µM; in the test with SNB-19 CNS, more than 25 µM; in the test with HOP-92 NSCLC, 7.15 µM; with SW-620 colon, more than 25 µM; with OVCAR-5 ovarian, more than 25 µM; with COLO 205 colon, 1.19 µM. Further, the TGI was more than 25 µM with OVCAR-3 ovarian, more than 25 µM in the test with SN12C renal, 1.97 µM with SF-539 CNS and 0.106 µM with UACC-62 melanoma.
On to `COC1CC(NC(=O)C(F)(F)F)C(OC(C)=O)C(C)O1` (stereo not given), for which the TGI with PC-3 prostate, with SNB-19 CNS, in the test with HOP-92 NSCLC, in the test with SW-620 colon, in the test with OVCAR-5 ovarian and in the test with COLO 205 colon was more than 100 µM in each case. Besides, the TGI with OVCAR-3 ovarian, in the test with SN12C renal, in the test with SF-539 CNS and with UACC-62 melanoma was more than 100 µM in each case.
With `COc1cc(OC)c(NC(=O)c2cc3ccccc3cc2O)cc1Cl`, the GI50 with PC-3 prostate was 2130 nM; with SNB-19 CNS, 4.82 µM; in the test with HOP-92 NSCLC, 1.55 µM; in the test on SW-620 colon it was 3.63 µM; with OVCAR-5 ovarian, 4.7 µM; in the test with COLO 205 colon, 3.91 µM. Also, the GI50 in the test on OVCAR-3 ovarian is 2020 nM; in the test with SN12C renal, 2.26 µM; in the test with SF-539 CNS it was 3.04 µM; in the test on UACC-62 melanoma, 2.87 µM. Further, the TGI with PC-3 prostate was 8.02 µM; in the test with SNB-19 CNS, more than 100 µM; with HOP-92 NSCLC, 4.89 µM; in the test with SW-620 colon, 18.8 µM; in the test with OVCAR-5 ovarian it was 34.5 µM; with COLO 205 colon, 14.5 µM. Moreover, the TGI in the test with OVCAR-3 ovarian amounted to 4.74 µM; with SN12C renal, 7.67 µM; with SF-539 CNS, 12.9 µM; in the test on UACC-62 melanoma it was 14.1 µM.
`C/C(=C\COc1c2c(cc3c1CCO3)OC1(C=C2)OC(CC/C(C)=C/COc2c3ccoc3cc3oc(=O)ccc23)C(C)(C)O1)CCC(O)C(C)(C)O` (stereo not given): the GI50 with PC-3 prostate was 6560 nM; with SNB-19 CNS, 55.2 µM; in the test with HOP-92 NSCLC, 7.56 µM; with SW-620 colon, 62.3 µM; in the test with OVCAR-5 ovarian, 80.2 µM; in the test with COLO 205 colon, 23.1 µM. In addition, the GI50 with OVCAR-3 ovarian was 15000 nM; in the test on SN12C renal it was 89.1 µM; in the test on SF-539 CNS it was 63.5 µM; with UACC-62 melanoma it was 4.87 µM. The TGI in the test with PC-3 prostate, in the test on SNB-19 CNS, with HOP-92 NSCLC, with SW-620 colon, with OVCAR-5 ovarian and with COLO 205 colon was more than 100 µM in each case. For the same molecule, the TGI in the test with OVCAR-3 ovarian, with SN12C renal, with SF-539 CNS and with UACC-62 melanoma was more than 100 µM each time.
